From patent US6479070B1, “Compositions containing pinolenic acid and its use as a health component” (Unilever Patent Holdings, priority 1999, dated 2002)

Tested on: PMA stimulated PGE2 Levels in Human Skin Fibroblasts
Details: primary human foreskin fibroblasts, pinolenic acid even at levels of 10 ng/ml, 24 h pre-incubation
Protocol: A reduction of the levels of ICAM and PGE2 is indicative for the anti-inflammatory effect. Primary human foreskin fibroblasts at passage 2 (P2) were seeded into 96-well plates at 10000 cells/well and maintained for 24 hours in an atmosphere of 5% carbon dioxide in Dulbeccos Modified Eagles Medium (DMEM) supplemented with 10% foetal calf serum. […] PMA represents an external stressor which induces oxidative stress and inflammatory responses in cells. The fibroblasts/media were then analysed as described below immediately or snap frozen in liquid nitrogen and stored at −70° C. for future analysis. […] PGE2 levels in the medium were determined with a Biotrak PGE2 immunoassay kit (Amersham, UK). The assay is based on the competition between unlabelled PGE2 in the sample and a fixed quantity of horseradish peroxidase labelled PGE2 for a limited amount of fixed PGE2 specific antibody. Concentrations of unlabelled sample PGE2 are determined according to a standard curve which was obtained at the same time.

## CCCCC/C=C\C/C=C\CC/C=C\CCCC(=O)O [Pinolenic acid, 5,9,12 C18:3 fatty acid]
  inflammatory response as measured by PGE2 production: dramatically reduces the inflammatory response
